Among the data in patent US20230127944A1, “BROAD-SPECTRUM CARBAPENEMS” (priority 2019, published 2023) are MIC values, retold here.

Holding throughout (format): cell-based
In one test the test system is S. aureus USA 300. The experiment in a line: broth microdilution MIC assay, S. aureus USA300. The settings on record: Staphylococcus aureus; S. aureus USA300 (MRSA); read-out: MIC, S. aureus USA300. Put shortly: (§1)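 Growth inhibition was measured by CLSI-based broth microdilution. Log-phase cultures in Mueller-Hinton broth with divalent cations were seeded at 5×10^5 CFU/mL into 2-fold serial compound dilutions and incubated 16-20 hours at 37° C before the MIC was scored by eye.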
(In general: Broth dilution looks for growth in wells or tubes with falling amounts of substance.)

In test [1] the test system is E. coli ATCC 25922 (wild-type/QC strain). The experiment in a line: broth microdilution MIC assay, E. coli 25922. As to conditions: Escherichia coli, ATCC25922; read-out: MIC, E. coli 25922. Put shortly: as §1
In test [2] the test system is P. aeruginosa ΔmexAB-OprM (an efflux pump knockout). The experiment in a line: broth microdilution MIC assay, P. aeruginosa ΔmexAB-OprM. As to conditions: Pseudomonas aeruginosa, read-out: MIC, P. aeruginosa ΔmexAB-OprM. The method in brief:
as §1

In test [3] the test system is S. aureus ATCC 33591 (methicillin-resistant). Nature of the test: broth microdilution MIC assay, S. aureus 33591. As to conditions: Staphylococcus aureus, ATCC33591; S. aureus 33591, methicillin-resistant; read-out: MIC, S. aureus 33591. Put shortly: as §1
In test [4] the test system is P. aeruginosa ATCC 27853 (wild-type/QC strain). The experiment in a line: broth microdilution MIC assay, P. aeruginosa 27853. As to conditions: Pseudomonas aeruginosa, ATCC27853; read-out: MIC, P. aeruginosa 27853. The method in brief: as §1
A further test relates to S. aureus USA 600. The experiment in a line: broth microdilution MIC assay, S. aureus USA600. The settings on record: Staphylococcus aureus; S. aureus USA600 (MRSA); read-out: MIC, S. aureus USA600. Put shortly: as §1
Test [5] has as its system P. aeruginosa 35151 (hyper-permeable strain). The experiment in a line: broth microdilution MIC assay, P. aeruginosa 35151. As to conditions: Pseudomonas aeruginosa, read-out: MIC, P. aeruginosa 35151. Put shortly: as §1
In another test the test system is P. aeruginosa Paeβ-17. The experiment in a line: broth microdilution MIC assay, P. aeruginosa Paeβ-17. The settings on record: Pseudomonas aeruginosa, read-out: MIC, P. aeruginosa Paeβ-17. The method in brief:
as §1

Converted amounts (≈) assume the structure as drawn. Some results are limits rather than exact numbers.

In general, MIC refers to the lowest concentration that inhibits growth of the organism. In the case of `CNC[C@H]1CC[C@H](CN2CC(SC3=C(C(=O)O)N4C(=O)[C@H]([C@@H](C)O)[C@H]4[C@H]3C)C2)CC1` [Example 47, (4R,5S,6S)-6-((R)-1-hydroxyethyl)-4-methyl-3-((1-(((1r,4R)-4-((methylamino)methyl)cyclohexyl)methyl)azetidin-3-yl)thio)-7-oxo-1-azabicyclo[3.2.0]hept-2-ene-2-carboxylic acid], the MIC was 1 to 4 µg/mL (≈ 2.29 to 9.14 µM) in the test on S. aureus USA 300; < 1 µg/mL in test [1]; 1 to 4 µg/mL (≈ 2.29 to 9.14 µM) in test [2]; 1 to 4 µg/mL (≈ 2.29 to 9.14 µM) in test [3]; 1 to 4 µg/mL (≈ 2.29 to 9.14 µM) in test [4]; 1 to 4 µg/mL (≈ 2.29 to 9.14 µM) in the test with S. aureus USA 600. For the same molecule, the MIC is < 1 µg/mL in test [5] and 8 to 32 µg/mL (≈ 18.3 to 73.1 µM) in the test on P. aeruginosa Paeβ-17.
For the molecule `C[C@@H](O)[C@H]1C(=O)N2C(C(=O)O)=C(S[C@@H]3CC[C@@H](NC4CCN(C(=N)N)CC4)C3)[C@H](C)[C@H]12` [Example 55, (4R,5S,6S)-3-(((1R,3R)-3-((1-carbamimidoylpiperidin-4-yl)amino)cyclopentyl)thio)-6-((R)-1-hydroxyethyl)-4-methyl-7-oxo-1-azabicyclo[3.2.0]hept-2-ene-2-carboxylic acid], the MIC in the test with S. aureus USA 300 is 1 to 4 µg/mL (≈ 2.21 to 8.86 µM); in test [1], < 1 µg/mL; in test [2], 1 to 4 µg/mL (≈ 2.21 to 8.86 µM); in test [3] it was 1 to 4 µg/mL (≈ 2.21 to 8.86 µM); in test [4], 8 to 32 µg/mL (≈ 17.7 to 70.9 µM); with S. aureus USA 600, 1 to 4 µg/mL (≈ 2.21 to 8.86 µM). Moreover, the MIC in test [5] was < 1 µg/mL; with P. aeruginosa Paeβ-17, 8 to 32 µg/mL (≈ 17.7 to 70.9 µM).
On to `C[C@@H](O)[C@H]1C(=O)N2C(C(=O)O)=C(S[C@@H]3CCN(C[C@H]4CC[C@@H](CN)CC4)C3)[C@H](C)[C@H]12` [Example 45, (4R,5S,6S)-3-(((R)-1-(((1S,4S)-4-(aminomethyl)cyclohexyl)methyl)pyrrolidin-3-yl)thio)-6-((R)-1-hydroxyethyl)-4-methyl-7-oxo-1-azabicyclo[3.2.0]hept-2-ene-2-carboxylic acid], for which the MIC in the test with S. aureus USA 300 was 1 to 4 µg/mL (≈ 2.29 to 9.14 µM); in test [1] it was < 1 µg/mL; in test [2], 1 to 4 µg/mL (≈ 2.29 to 9.14 µM); in test [3] it was 1 to 4 µg/mL (≈ 2.29 to 9.14 µM); in test [4] it was 1 to 4 µg/mL (≈ 2.29 to 9.14 µM); with S. aureus USA 600, 1 to 4 µg/mL (≈ 2.29 to 9.14 µM). Besides, the MIC in test [5] is < 1 µg/mL; with P. aeruginosa Paeβ-17, 8 to 32 µg/mL (≈ 18.3 to 73.1 µM).
Regarding `C[C@@H](O)[C@H]1C(=O)N2C(C(=O)O)=C(S[C@@H]3CCN([C@@H]4CC[C@@H](N)C4)C3)[C@H](C)[C@H]12` [Example 35, (4R,5S,6S)-3-(((R)-1-((1R,3R)-3-aminocyclopentyl)pyrrolidin-3-yl)thio)-6-((R)-1-hydroxyethyl)-4-methyl-7-oxo-1-azabicyclo[3.2.0]hept-2-ene-2-carboxylic acid], the MIC in the test on S. aureus USA 300 is 1 to 4 µg/mL (≈ 2.53 to 10.1 µM); in test [1], < 1 µg/mL; in test [2], 1 to 4 µg/mL (≈ 2.53 to 10.1 µM); in test [3], 1 to 4 µg/mL (≈ 2.53 to 10.1 µM); in test [4], 1 to 4 µg/mL (≈ 2.53 to 10.1 µM); in the test with S. aureus USA 600 it was 1 to 4 µg/mL (≈ 2.53 to 10.1 µM). Besides, the MIC in test [5] was < 1 µg/mL; in the test with P. aeruginosa Paeβ-17, 8 to 32 µg/mL (≈ 20.2 to 80.9 µM).
Turning to `C[C@@H](O)[C@H]1C(=O)N2C(C(=O)O)=C(SC3CN([C@H]4CC[C@@H](CNC(=N)N)CC4)C3)[C@H](C)[C@H]12` [Example 65, (4R,5S,6S)-3-((1-((1S,4S)-4-(guanidinomethyl)cyclohexyl)azetidin-3-yl)thio)-6-((R)-1-hydroxyethyl)-4-methyl-7-oxo-1-azabicyclo[3.2.0]hept-2-ene-2-carboxylic acid], the MIC with S. aureus USA 300 is 1 to 4 µg/mL (≈ 2.21 to 8.86 µM); in test [1], < 1 µg/mL; in test [2], 1 to 4 µg/mL (≈ 2.21 to 8.86 µM); in test [3], 1 to 4 µg/mL (≈ 2.21 to 8.86 µM); in test [4], 1 to 4 µg/mL (≈ 2.21 to 8.86 µM); in the test on S. aureus USA 600 it was 1 to 4 µg/mL (≈ 2.21 to 8.86 µM). Besides, the MIC in test [5] was < 1 µg/mL; in the test with P. aeruginosa Paeβ-17 it was 8 to 32 µg/mL (≈ 17.7 to 70.9 µM).
For the molecule `C[C@@H](O)[C@H]1C(=O)N2C(C(=O)O)=C(SC3CN([C@H]4C[C@@H](N)C4)C3)[C@H](C)[C@H]12` [Example 3, (4R,5S,6S)-3-((1-((1s,3S)-3-aminocyclobutyl)azetidin-3-yl)thio)-6-((R)-1-hydroxyethyl)-4-methyl-7-oxo-1-azabicyclo[3.2.0]hept-2-ene-2-carboxylic acid], the MIC in the test with S. aureus USA 300 was 1 to 4 µg/mL (≈ 2.72 to 10.9 µM); in test [1], < 1 µg/mL; in test [2], 1 to 4 µg/mL (≈ 2.72 to 10.9 µM); in test [3], 8 to 32 µg/mL (≈ 21.8 to 87.1 µM); in test [4], 8 to 32 µg/mL (≈ 21.8 to 87.1 µM); in the test on S. aureus USA 600, 1 to 4 µg/mL (≈ 2.72 to 10.9 µM). Besides, the MIC was < 1 µg/mL in test [5] and > 32 µg/mL with P. aeruginosa Paeβ-17.
On to `C[C@@H](O)[C@H]1C(=O)N2C(C(=O)O)=C(SC3CN([C@H]4C[C@@H](CN)C4)C3)[C@H](C)[C@H]12` [Example 1, (4R,5S,6S)-3-((1-((1s,3S)-3-(aminomethyl)cyclobutyl)azetidin-3-yl)thio)-6-((R)-1-hydroxyethyl)-4-methyl-7-oxo-1-azabicyclo[3.2.0]hept-2-ene-2-carboxylic acid], for which the MIC in the test with S. aureus USA 300 was 1 to 4 µg/mL (≈ 2.62 to 10.5 µM); in test [1] it was < 1 µg/mL; in test [2] it was 1 to 4 µg/mL (≈ 2.62 to 10.5 µM); in test [3] it was 8 to 32 µg/mL (≈ 21 to 83.9 µM); in test [4] it was 8 to 32 µg/mL (≈ 21 to 83.9 µM); in the test with S. aureus USA 600, 1 to 4 µg/mL (≈ 2.62 to 10.5 µM). For the same molecule, the MIC was < 1 µg/mL in test [5] and > 32 µg/mL with P. aeruginosa Paeβ-17.
